Reference: patent US6358998B1, “Body fat-reducing agent comprising dioxabicyclo[3.3.0] octane derivative as active ingredient” (Rinoru Oil Mills Co., LTD, priority 1999, dated 2002)

Key:
fat tissues of rats = test: Example 1: four-week feeding of experimental diet to rats, organ and fat tissue weights; format: in vivo, rat; conditions: Sprague-Dawley male rats, four weeks of feeding, compared with the control group
Text: Sprague-Dawley male rats of four weeks of age were acclimatized, and then divided into three groups (each group consisting of 8 rats), a 1.0% linoleic acid group (a control group), 0.2% sesamin group, and 0.2% sesamin+1.0% CLA group. The experimental diet shown in Table 1 and water were then freely fed to these three groups of rats. […] Four weeks after the initiation of feeding, the 8 rats constituting each group were scarified, and the organs were taken out.

perfused liver = test: Example 2: liver perfusion experiment, triglyceride secretion; format: in vivo, rat; conditions: Sprague-Dawley male rats, three weeks of feeding, compared with the control group
Text: Sprague-Dawley male rats of four weeks of age were acclimatized for 5 to 11 days, and then divided into three groups (each group consisting of 5 rats), a 1.0% linoleic acid group (a control group), 0.2% sesamin group, and 0.2% sesamin+1.0% CLA group. In the experiment, CE-2 (lipid content 4.5%) manufactured by CLEA JAPAN INC. with 1.5% of a soybean oil being added thereto was used as a basic diet, and the experimental diet was freely fed to the rats. […] Three weeks after the initiation of feeding, a liver perfusion experiment was carried out.

c1cc2c(cc1[C@H]1OC[C@H]3[C@@H]1CO[C@@H]3c1ccc3c(c1)OCO3)OCO2 [Sesamin, sesamin]
reduced: weight of fat tissues around epididymis (fat tissues of rats) | weight of fat tissues around kidney (fat tissues of rats) | amount of triglyceride secreted from the perfused liver (perfused liver)
